Six molecules from patent publication US20260242395A1, “AMINOHETEROARYL KINASE INHIBITORS” (ALLORION THERAPEUTICS INC, priority 2022, published 2026) can be followed below.

Holding throughout (type): biochemical
In one experiment the target is T1, CDK2/CyclinE1 (Homo sapiens, UniProt P24941).
T1 construct: purchased Carna 04-165
In words: CDK2/CyclinE1 kinase inhibitory activity (Caliper mobility shift). As to conditions: enzyme 3 nM, ATP 77 μM, 28° C. 30 min; read-out: CDK2/Cyclin E1 IC50. On the procedure:
CDK2/CyclinE1 kinase inhibitory activity (IC50): 5 μl of various dilutions of test compounds in 1×kinase buffer (50 mM HEPES pH 7.5, 10 mM MgCl2, 2 mM DTT and […] Brij-35) were mixed with 10 μL of CDK2/CyclinE1 (Carna, 04-165 #, final concentration 3 nM in 1×Kinase buffer) in 384 plates and incubated at room temperature for 10 min. To initiate each reaction, 10 μL of peptide solution containing fluorescently-labeled-peptide 18(5-FAM-QSPKKG-CONH2) (GL, 114202 #, final concentration 3000 nM) and ATP (final concentration 77 μM) in 1×Kinase buffer was added to each of the wells containing test compound and CDK2/CyclinE1 mixture. The reaction was then allowed to proceed at 28° C. for 30 min and terminated by the addition of 25 μL stop buffer (100 mM HEPES pH 7.5, 50 mM EDTA, 0.2% Coating Reagent #3 (Perkin Elmer, 760050 #) and 0.015% Brij-35).
(§1) Following the kinase reaction, Caliper EZ reader II (Downstream voltages: −500V, Upstream voltages: −2250V, Base pressure −0.5 PSI, Screen pressure −1.2 PSI) was used to separate the phosphorylated (product) and the unphosphorylated (substrate) fluorescently-labeled peptide 18 based on their different mobility. Both substrate and product were measured and the ratio of these values were used to generate % conversion by Caliper EZ reader II. These conversion values were then transformed into % inhibition of kinase activity using the formula: % Inhibition=[(MA−X)/(MA−MI)]×100% where MA=conversion value of DMSO only controls, MI=conversion value of no enzyme controls and X=conversion value at any given compound dose. IC50 values were then calculated by plotting dose-response curves and then using the XLfit application in Excel software.

A further experiment deals with T2, CDK6/CyclinD3 (Homo sapiens, UniProt Q00534).
T2 construct: purchased Carna 04-107
T2 sequence (Q00534 whole entry): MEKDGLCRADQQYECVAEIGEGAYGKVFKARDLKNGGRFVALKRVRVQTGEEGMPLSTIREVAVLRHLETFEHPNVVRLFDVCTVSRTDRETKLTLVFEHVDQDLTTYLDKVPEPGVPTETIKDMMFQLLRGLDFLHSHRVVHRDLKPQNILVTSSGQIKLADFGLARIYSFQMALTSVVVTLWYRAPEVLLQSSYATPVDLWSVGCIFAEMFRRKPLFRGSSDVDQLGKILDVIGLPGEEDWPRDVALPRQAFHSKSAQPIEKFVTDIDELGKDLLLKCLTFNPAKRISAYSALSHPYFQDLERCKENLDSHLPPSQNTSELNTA
T2 sequence (P30281 whole entry partner): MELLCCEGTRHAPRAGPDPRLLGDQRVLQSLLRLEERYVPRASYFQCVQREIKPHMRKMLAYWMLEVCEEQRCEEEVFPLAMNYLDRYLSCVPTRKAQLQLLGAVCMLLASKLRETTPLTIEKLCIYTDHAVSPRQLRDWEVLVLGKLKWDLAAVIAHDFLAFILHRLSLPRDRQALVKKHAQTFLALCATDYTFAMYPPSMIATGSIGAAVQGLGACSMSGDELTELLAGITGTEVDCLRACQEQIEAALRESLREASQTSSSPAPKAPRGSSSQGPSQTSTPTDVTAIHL
The experiment is described as follows: CDK6/CyclinD3 kinase inhibitory activity (Caliper mobility shift). As to conditions: enzyme 15 nM, ATP 800 μM, 28° C. 30 min; read-out: CDK6/Cyclin D3 IC50. A digest of the protocol: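 Compound preincubated 10 min at room temperature with CDK6/CyclinD3 (15 nM final) in HEPES pH 7.5/MgCl2/DTT buffer; reaction with 5-FAM peptide (3000 nM) and ATP 800 μM, 30 min at 28°C, stopped with EDTA. Substrate/product separated by microfluidic mobility shift; % conversion converted to % inhibition, IC50 from dose-response curves.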

The target in a further experiment is T3, CDK9/CyclinT1 (Homo sapiens, UniProt P50750).
T3 construct: purchased Millipore 14-685M
T3 sequence (P50750 whole entry): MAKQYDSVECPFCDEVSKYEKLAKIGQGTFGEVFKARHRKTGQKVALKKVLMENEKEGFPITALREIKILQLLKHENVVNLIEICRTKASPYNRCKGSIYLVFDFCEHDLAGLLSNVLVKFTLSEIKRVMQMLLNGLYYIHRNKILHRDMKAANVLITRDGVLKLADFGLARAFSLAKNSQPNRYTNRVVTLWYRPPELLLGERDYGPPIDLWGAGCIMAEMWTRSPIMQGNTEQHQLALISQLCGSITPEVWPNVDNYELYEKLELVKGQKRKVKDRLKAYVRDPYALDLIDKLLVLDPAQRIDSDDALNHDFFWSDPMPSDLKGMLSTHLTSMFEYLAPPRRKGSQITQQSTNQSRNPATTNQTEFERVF
T3 sequence (O60563 whole entry partner): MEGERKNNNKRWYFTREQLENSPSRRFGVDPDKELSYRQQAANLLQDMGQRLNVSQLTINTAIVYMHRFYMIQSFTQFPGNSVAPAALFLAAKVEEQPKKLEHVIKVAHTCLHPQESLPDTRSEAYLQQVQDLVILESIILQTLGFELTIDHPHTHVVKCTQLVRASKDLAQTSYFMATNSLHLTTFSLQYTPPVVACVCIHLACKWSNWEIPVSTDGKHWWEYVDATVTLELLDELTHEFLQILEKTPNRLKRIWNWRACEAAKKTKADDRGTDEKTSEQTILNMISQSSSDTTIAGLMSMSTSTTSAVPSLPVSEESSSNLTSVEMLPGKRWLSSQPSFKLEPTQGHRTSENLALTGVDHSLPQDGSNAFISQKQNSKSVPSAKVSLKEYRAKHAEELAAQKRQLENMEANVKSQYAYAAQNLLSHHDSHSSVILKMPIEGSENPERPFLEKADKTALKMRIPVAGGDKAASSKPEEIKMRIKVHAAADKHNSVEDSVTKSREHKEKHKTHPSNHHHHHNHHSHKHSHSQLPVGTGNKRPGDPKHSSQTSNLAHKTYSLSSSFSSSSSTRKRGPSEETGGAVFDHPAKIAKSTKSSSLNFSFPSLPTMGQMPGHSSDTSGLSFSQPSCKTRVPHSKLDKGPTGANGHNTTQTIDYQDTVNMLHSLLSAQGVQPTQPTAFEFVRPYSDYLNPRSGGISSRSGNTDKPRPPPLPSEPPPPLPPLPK
The experiment is described as follows: CDK9/CyclinT1 kinase inhibitory activity (Caliper mobility shift). As to conditions: enzyme 12.5 nM, ATP 10M, 28° C. 30 min; read-out: CDK9/Cyclin T1 IC50. On the procedure:
CDK9/CyclinT1 kinase inhibitory activity (IC50): 5 μl of various dilutions of test compound in 1× kinase buffer (20 mM HEPES, pH 7.5, 10 mM MgCl2, 2 mM DTT and 0.01% Triton X-100) was mixed with 10 μL of CDK9/CyclinT1 (Millipore, 14-685M #, final concentration 12.5 nM in 1× Kinase buffer) in 384 plates and incubated at room temperature for 10 min. To initiate each reaction, 10 μL of peptide solution containing fluorescently-labeled -peptide CTD3 (5-FAM-[…], GL, SY346885 #, final concentration 3000 nM) and ATP (final concentration […]) in 1× Kinase buffer was added to each of the wells containing test compound and CDK9/CyclinT1 mixture. The reaction is then allowed to proceed at 28° C. for 30 min and terminated by the addition of 25 μL stop buffer (100 mM HEPES pH 7.5, 50 mM EDTA, 0.2% Coating Reagent #3 (Perkin Elmer, 760050 #) and 0.015% Brij-35).
as §1, with “CTD3” for “18”

`CC1(C)NCc2c(cnc3c(F)cc(-c4nc(N[C@@H]5CCOC[C@H]5O)ncc4F)cc23)C1O` (single isomer, unassigned) [Example 106b]: the IC50 on CDK2/CyclinE1 was 100 to 1000 nM; at CDK6/CyclinD3, 10 to 100 nM; on CDK9/CyclinT1 it was 100 to 1000 nM.
Turning to `Cc1[nH]cnc1-c1cnc2c(F)cc(-c3nc(N[C@@H]4CCOC[C@H]4O)ncc3Cl)cc2c1` [Example 18, (3S,4R)-4-((5-chloro-4-(8-fluoro-3-(5-methyl-1H-imidazol-4-yl)quinolin-6-yl)pyrimidin-2-yl)amino)tetrahydro-2H-pyran-3-ol], the IC50 is 100 to 1000 nM on CDK2/CyclinE1, 100 to 1000 nM on CDK6/CyclinD3 and at least 1000 nM on CDK9/CyclinT1.
For the molecule `Cc1nc2c(F)cc(-c3nc(N[C@@H]4CCOC[C@H]4O)ncc3Cl)cc2c2c1CC(C)(C)NC2` [Example 98], the IC50 on CDK2/CyclinE1, at CDK6/CyclinD3 and on CDK9/CyclinT1 was 100 to 1000 nM in each case.
On to `CNC(C)c1cc2cc(-c3nc(N[C@@H]4CCOC[C@H]4O)ncc3Cl)cc(F)c2nc1C` (single isomer, unassigned) [Example 45a], for which the IC50 at CDK2/CyclinE1, at CDK6/CyclinD3 and on CDK9/CyclinT1 was 100 to 1000 nM in each case.
`CC(C)(O)c1cnc2c(F)cc(-c3nc(N[C@@H]4CCOC[C@H]4O)ncc3F)cc2c1Cl` [Example 22, (3S,4R)-4-((4-(4-chloro-8-fluoro-3-(2-hydroxypropan-2-yl)quinolin-6-yl)-5-fluoropyrimidin-2-yl)amino)tetrahydro-2H-pyran-3-ol]: the IC50 lay within 100 to 1000 nM at CDK2/CyclinE1, 10 to 100 nM at CDK6/CyclinD3 and 100 to 1000 nM at CDK9/CyclinT1.
As to `CC(C)(O)c1cnc2c(F)cc(-c3nc(Nc4ccc(-c5c[nH]cn5)cn4)ncc3F)cc2c1Cl` [Example 52], the figures for the IC50 at CDK2/CyclinE1, at CDK6/CyclinD3 and on CDK9/CyclinT1 were at least 1000 nM, 10 to 100 nM and at least 1000 nM, respectively.
